Source: article PMC10953011, “Oxygen‐insensitive nitroreductase E. coli NfsA, but not NfsB, is inhibited by fumarate” (Proteins, 2022)

What was measured:
NfsA [1] = target: T1, NfsA (Escherichia coli, UniProt P17117); assay: X-ray crystal structure ([…] Å); steady-state inhibition kinetics with nitrofurazone and NADPH; type: biochemical; parameters: untagged full-length, 240 residues, dimer
T1 sequence (P17117 1-240): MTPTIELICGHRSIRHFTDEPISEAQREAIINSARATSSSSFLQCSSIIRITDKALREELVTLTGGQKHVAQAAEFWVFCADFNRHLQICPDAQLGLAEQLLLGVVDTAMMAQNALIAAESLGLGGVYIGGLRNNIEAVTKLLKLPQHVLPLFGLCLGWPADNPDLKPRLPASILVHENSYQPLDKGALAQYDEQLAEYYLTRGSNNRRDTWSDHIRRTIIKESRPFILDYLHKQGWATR

NfsA [2] = target: T1, NfsA; assay: steady-state inhibition kinetics with nitrofurazone and NADPH, […] nm; type: biochemical; parameters: untagged full-length

SMILES: O=C(O)/C=C/C(=O)O [fumarate]
- Ki (NfsA [1]): 0.145 ± 0.028 mM

SMILES: O=C(O)CCC(=O)O [succinate]
- Ki (NfsA [2]): 4.3 ± 0.6 mM
